Results taken from patent EP4786466A1, “QUINAZOLINE DERIVATIVE, SALT THEREOF, AND PHARMACEUTICAL COMPOSITION COMPRISING SAME AS ACTIVE INGREDIENT” (Korea Research Institute of Chemical Technology, priority 2023, dated 2025).
Where a name gives a salt, the structure may show the parent alone. Read-outs that look alike come from different tables or passages of the source.

Columns and labels:
[1] = system: MCF10A normal breast cell lines; assay: Cell viability analysis, WST-8 assay, MCF10A; conditions: Homo sapiens, MCF-10A, 72 h
Method: (§1) MCF7 breast cancer cell lines and MCF10A normal breast cancer cell lines were treated with serial dilutions of the compounds of the present invention ranging from 1 µM to 15.63 nM for 72 hours. Cell viability was measured by the WST-8 assay (Cyto XTM cell viability assay kit; LPS solution, Daejeon, Korea) according to the manufacturer's instructions.

[2] = in vitro; conditions: human
Method: as §1

[3] = system: MCF7 breast cancer cell lines; assay: Cell viability analysis, WST-8 assay, MCF7; conditions: Homo sapiens, MCF7, 72 h; for viability at 1 µM: read-out: Cell viability (%) WST-8, MCF7 (1 µM), compound 1 µM, 72 hours; for viability at 1.25 µM: read-out: Cell viability (%) WST-8, MCF7, footnote a: concentration 1.25 µM, 72 hours
Method: as §1

[4] = molecular target: T1, Recombinant GST-TAG-MASTL (Homo sapiens, UniProt Q96GX5); assay: HTRF-based kinase assay (HTRF KinEASE assay kit); format: biochemical; conditions: for activity at 1 µM: read-out: MASTL activity (%) HTRF (1 µM); for activity at 10 µM: footnote b: concentration 10 µM, read-out: MASTL activity (%) HTRF
T1 construct: GST; purchased Thermo Fisher Scientific
T1 sequence (Q96GX5 1-879): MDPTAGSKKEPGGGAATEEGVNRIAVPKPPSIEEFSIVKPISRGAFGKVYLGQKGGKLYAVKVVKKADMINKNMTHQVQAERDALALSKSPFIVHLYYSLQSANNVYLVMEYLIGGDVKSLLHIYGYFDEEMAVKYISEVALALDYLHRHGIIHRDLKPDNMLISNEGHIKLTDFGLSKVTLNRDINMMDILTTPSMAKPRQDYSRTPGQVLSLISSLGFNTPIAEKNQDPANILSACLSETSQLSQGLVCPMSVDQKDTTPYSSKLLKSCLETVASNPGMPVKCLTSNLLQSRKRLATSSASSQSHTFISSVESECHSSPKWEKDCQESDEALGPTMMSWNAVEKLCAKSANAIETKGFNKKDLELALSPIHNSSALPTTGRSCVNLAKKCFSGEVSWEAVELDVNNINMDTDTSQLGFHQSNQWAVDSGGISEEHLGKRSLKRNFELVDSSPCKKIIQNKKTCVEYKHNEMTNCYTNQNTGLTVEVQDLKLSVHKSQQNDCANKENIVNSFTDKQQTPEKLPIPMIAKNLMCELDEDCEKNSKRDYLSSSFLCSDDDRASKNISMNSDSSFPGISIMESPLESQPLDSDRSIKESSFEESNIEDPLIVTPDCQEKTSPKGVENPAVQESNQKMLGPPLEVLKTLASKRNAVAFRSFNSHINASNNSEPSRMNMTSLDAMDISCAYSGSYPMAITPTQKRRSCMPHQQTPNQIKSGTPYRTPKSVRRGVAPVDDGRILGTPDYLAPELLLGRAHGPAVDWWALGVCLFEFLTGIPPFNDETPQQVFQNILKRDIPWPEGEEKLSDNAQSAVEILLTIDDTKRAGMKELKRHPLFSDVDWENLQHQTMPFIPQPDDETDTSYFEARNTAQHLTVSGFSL
Text: Recombinant GST-TAG-MASTL (Thermo Fisher Scientific, MA, USA) was used for HTRF-based kinase assays. The HTRF KinEASE assay kit (CisBio, MA, USA) was used according to the manufacturer's instructions.

[5] = system: pENSA; assay: pENSA level by immunofluorescence (described method: in vitro kinase analysis with GST-tag-MASTL and His-tag-ENSA); format: cell-based; conditions: for pENSA (%) Immunofluor ecense (1 µM): compound 1 µM
In short: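 In vitro kinase reaction using recombinant GST-tagged MASTL with His-tagged ENSA as substrate; phosphorylated ENSA (pENSA) serves as read-out of MASTL activity. Cell lines named: MCF7 breast cancer and MCF10A.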

[6] = read-out: IC50 Cell viability (MCF10A)
[7] = read-out: IC50 Cell viability (MCF7)
[8] = read-out: IC50(nM) Cell viability (MCF10A)
[9] = read-out: IC50(nM) Cell viability (MCF7)
[10] = HTRF, read-out: IC50(nM) MASTL activity

Row | Structure (SMILES) | IC50 [1, 6] [nM] | viability at 1 µM [3] [%] | IC50 [3, 7] [nM] | pENSA (%) Immunofluor ecense (1 µM) [5] [%] | viability at 1.25 µM ([2]; mcf10a cells) [%] | viability at 1.25 µM [3] [%] | IC50 [3, 9] [nM] | IC50 [4, 10] [nM] | activity at 10 µM [4] [%] | IC50 ([5]; read-out: IC50(nM) pENSA) [nM] | activity at 1 µM ([4]; compound 1 µM) [%] | further results
1 | NCCNC(=O)c1ccc(Nc2nc(Nc3cc(C4CC4)[nH]n3)c3ccccc3n2)cc1 [4aa, M-(2-aminoethyl)-4-((4-((5-cyclopropyl-1G-pyrazol-3-yl)amino)quinazolin-2-yl)amino)benzamide.trifluoroacetic acid] | 9000 | 87.6 | 4500 | 142.5 |  |  |  |  |  |  |  | viability at 1 µM ([2]; mcf10a cells): 111%; IC50 [4]: 720 nM; activity at 1 µM [4]: 26.8%
2 | CNS(=O)(=O)c1ccc(Nc2nc(Nc3cc(C4CC4)[nH]n3)c3ccccc3n2)cc1 [compound 4h, 4-((4-((5-cyclopropyl-1G-pyrazol-3-yl)amino)quinazolin-2-yl)amino)-M-methylbenzenesulfonamide] |  |  |  | 17.1 | 4.7 | 41.8 | 758 | 843 | 17.6 | 408 |  | IC50 [1, 8]: 57.2 nM
3 | O=S(=O)(c1ccc(F)cc1)N1CC2CC1CN2c1nc(Nc2cc(C3CC3)[nH]n2)c2ccccc2n1 (stereo not drawn) [compound 15n, M-(5-cyclopropyl-1G-pyrazol-3-yl)-2-(5-((4-fluorophenyl)sulfonyl)-2,5-diazabicyclo[2.2.1]heptan-2-yl)quinazolin-4-amine] | 1300 |  | 3500 | 77.5 |  |  |  | 327 |  |  | 32.4 | viability at 1.1 µM ([2]; mcf10a cells): 63.9%; viability at 1.1 µM ([3]; read-out: Cell viability (%) WST-8, MCF7, footnote d: concentration 1.1 µM, 72 hours): 108%
4 | c1ccc2c(Nc3cc(C4CC4)[nH]n3)nc(N3CCNCC3)nc2c1 [compound 11, M-(5-cyclopropyl-1G-pyrazol-3-yl)-2-(piperazin-1-yl)quinazolin-4-amine] | 4100 |  | 3200 | 66.4 | 98 | 104 |  |  | 18.1 |  |  | IC50 ([4]; HTRF, unit µM, read-out: IC50 MASTL activity): 1000 nM
5 | CN1CCN(c2nc(Nc3cc(C4CC4)[nH]n3)c3ccccc3n2)CC1 [compound 12a, M-(5-cyclopropyl-1G-pyrazol-3-yl)-2-(4-methylpiperazin-1-yl)quinazolin-4-amine] | 2400 |  |  | 63.8 | 82.3 | 26.2 | 697 |  | 26.3 |  |  | IC50 ([5]; unit µM, read-out: IC50 pENSA): 1100 nM
6 | NC(=O)c1ccc(Nc2nc(Nc3cc(C4CC4)[nH]n3)c3ccccc3n2)cc1 [compound 4t, 4-((4-((5-cyclopropyl-1G-pyrazol-3-yl)amino)quinazolin-2-yl)amino)benzamide] |  | 2.7 |  | 0.9 |  |  | 324 | 198 |  | 341 | 14.9 | IC50 [1, 8]: 226 nM; viability at 1 µM ([2]; mcf10a cells): 18.4%
7 | CCNC(=O)N1CCN(c2nc(Nc3cc(C4CC4)[nH]n3)c3ccccc3n2)CC1 [compound 12c, 4-(4-((5-cyclopropyl-1G-pyrazol-3-yl)amino)quinazolin-2-yl)-M-ethylpiperazine-1-carboxamide] | 1400 |  |  | 75.8 | 61.3 | 107 |  |  | 45.7 |  |  | 
8 | OCCNc1nc(Nc2cc(C3CC3)[nH]n2)c2ccccc2n1 [compound 4cf, 2-((4-((5-cyclopropyl-1G-pyrazol-3-yl)amino)quinazolin-2-yl)amino)ethan-1-ol hydrochloride] | 1200 |  | 1800 | 17.4 | 56.4 | 87 |  | 893 | 23.7 | 423 |  | 
9 | COc1ccc(CNc2nc(Nc3cc(C4CC4)[nH]n3)c3ccccc3n2)cc1 [compound 4cd, N^4-(5-cyclopropyl-1H-pyrazol-3-yl)-N^2-(4-methoxybenzyl)quinazoline-2,4-diamine] | 2700 |  | 2600 |  |  | 83.8 |  | 476 | 20.3 | 543 |  | viability at 1.25 µM [2]: 83.9%
10 | c1ccc(CNc2nc(Nc3cc(C4CC4)[nH]n3)c3ccccc3n2)cc1 [compound 4cc, N^2-benzyl-N^4-(5-cyclopropyl-1H-pyrazol-3-yl)quinazoline-2,4-diamine] | 2800 |  | 1100 |  |  | 65.5 |  | 298 | 22 | 363 |  | viability at 1.25 µM [2]: 98.5%
11 | CC(C)C(=O)N1CC=C(c2nc(Nc3cc(C4CC4)[nH]n3)c3ccccc3n2)CC1 [compound 9b, 1-(4-(4-((5-cyclopropyl-1G-pyrazol-3-yl)amino)quinazolin-2-yl)-3,6-dihydropyridin-1(2G)-yl)-2-methylpropan-1-one] |  | 52.5 | 1000 | 34.6 |  |  |  | 136 |  | 832 | 21.7 | IC50 [1, 8]: 316 nM; viability at 1 µM ([2]; mcf10a cells): 12.3%
12 | c1ccc2c(Nc3cc(C4CC4)[nH]n3)nc(Nc3ccc4cc[nH]c4c3)nc2c1 [compound 4dc, N^4-(5-cyclopropyl-1H-pyrazol-3-yl)-N^2-(1H-indol-6-yl)quinazoline-2,4-diamine] | 1300 | 6.4 |  |  |  |  | 467 | 480 |  |  | 22.1 | viability at 1 µM [2]: 54%; IC50 ([5]; unit µM, read-out: IC50 pENSA): 2500 nM
13 | c1ccc2c(Nc3cc(C4CC4)[nH]n3)nc(Nc3cc(C4CC4)[nH]n3)nc2c1 [compound 4n, M^2,M^4-bis(5-cyclopropyl-1G-pyrazol-3-yl)quinazoline-2,4-diamine] |  | 21.5 |  | 92.8 |  |  | 287 |  |  |  | 106 | IC50 [1, 8]: 116 nM; viability at 1 µM ([2]; mcf10a cells): 3.2%
14 | c1ccc(CCNc2nc(Nc3cc(C4CC4)[nH]n3)c3ccccc3n2)cc1 [compound 4ce, N^4-(5-cyclopropyl-1H-pyrazol-3-yl)-N^2-phenethylquinazoline-2,4-diamine] | 3700 |  | 1500 |  |  | 72.8 |  | 692 | 14.1 | 491 |  | viability at 1.25 µM [2]: 100%
